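Assay format: 96-well plates, 48-hour exposure. TGI denotes the concentration required for complete inhibition of growth.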
How the values were obtained:
Experiment in all cases: NCI anticancer screen, dose series, 48 h
786-0 renal = tested on: 786-0 renal
ACHN renal = tested on: ACHN renal
M14 melanoma = tested on: M14 melanoma
MALME-3M melanoma = tested on: MALME-3M melanoma
MDA-MB-435 = tested on: MDA-MB-435
NCI-H23 lung = tested on: NCI-H23 lung
OVCAR-8 ovarian = tested on: OVCAR-8 ovarian
SNB-75 CNS = tested on: SNB-75 CNS
UACC-62 melanoma = tested on: UACC-62 melanoma
DLD-1 colon = tested on: DLD-1 colon
HOP-18 NSCLC = tested on: HOP-18 NSCLC
M19-MEL melanoma = tested on: M19-MEL melanoma

| SMILES | TGI (786-0 renal) | TGI (ACHN renal) | TGI (M14 melanoma) | TGI (MALME-3M melanoma) | TGI (MDA-MB-435) | TGI (NCI-H23 lung) | TGI (OVCAR-8 ovarian) | TGI (SNB-75 CNS) | TGI (UACC-62 melanoma) | TGI (DLD-1 colon) | TGI (HOP-18 NSCLC) | TGI (M19-MEL melanoma) |
| --- | --- | --- | --- | --- | --- | --- | --- | --- | --- | --- | --- | --- |
| Cc1n[n+]([O-])c(C)cc1[N+](=O)[O-] | > 100 µM | 30.2 µM | 30.7 µM | 35.3 µM | 29 µM | 29.9 µM | 31.6 µM | 54 µM | 31.5 µM |  |  |  |
| COC(=O)C1CC23C4=C(CCC41)CCC1CN4CC(C)C(CC(OC(C)=O)C12COC(C)=O)C43O (stereo unspecified) | > 100 µM | > 100 µM | > 100 µM | > 100 µM | > 100 µM | > 100 µM | > 100 µM | > 100 µM | > 100 µM |  |  |  |
| CCOC(=O)c1c(-c2cccc(Cl)c2)c(C(=O)OC)c(C)c2sc(C=O)nc12 |  | 31.4 µM | 31.4 µM | 38 µM | 38.7 µM | > 100 µM | 41.9 µM | > 100 µM | 32.2 µM |  |  |  |
| CCOCC(=O)N(C)c1cccc2c3c(n(C)c12)CCCCC3 |  |  |  | > 100 µM |  | > 100 µM | > 100 µM | > 100 µM | > 100 µM | > 100 µM | > 20.9 µM | > 100 µM |
| OCCCSCCO | > 100 µM | > 100 µM | > 100 µM | > 100 µM | > 100 µM | > 100 µM | > 100 µM | > 100 µM | > 100 µM |  |  |  |
| CC1=CC(O)C(C(O)(C(F)(F)F)C(F)(F)F)C(C)(C)C1 (stereo unspecified) |  | > 10 µM |  | > 10 µM |  | > 10 µM | > 10 µM | > 10 µM | > 10 µM |  |  |  |
| O=C(O)C(O)C(O)C(O)C(O)C(=O)O (stereo unspecified) | > 100 µM | > 100 µM | > 100 µM | > 100 µM | > 100 µM | > 100 µM | > 100 µM | > 100 µM | > 100 µM |  |  |  |
| COC(=O)C1=C(OC(=O)/C=C/c2ccc(Cl)cc2)C(C(=O)OC)[C@]2(O)[C@@H](C(=O)OC)[C@H]1C[C@@H](c1ccccc1)[C@@H]2C(=O)OC (stereo partly specified) | > 25.2 µM | > 100 µM | 49.8 µM | 20.4 µM | > 100 µM | > 25.1 µM | > 30.7 µM | > 100 µM | > 100 µM |  |  |  |
| O=C1C2Cc3c(n(C(=O)c4ccccc4)c4ccccc34)CC2C(=O)N1c1ccc(Nc2ccc(N3C(=O)C4Cc5c(n(C(=O)c6ccccc6)c6ccccc56)CC4C3=O)cc2)cc1 (stereo unspecified) | > 100 µM | > 100 µM | > 100 µM | > 100 µM | > 100 µM | > 100 µM | > 100 µM | > 100 µM | > 100 µM |  |  |  |

From PubChem BioAssay (NCI)
